The source of these data is patent US9809640B2, “ApoE peptide dimers and uses thereof” (priority 2010, dated 2017).

Non-standard residues stand in square brackets, D forms with d. No end group written: not given here. Aib = CC(C)(N)C(=O)O

One data set deals with BV2 microglia cells. The conditions noted are these: previously shown; cited from earlier work.
Data set [1] can be described thus: Mouse toxicity, maximum tolerated dose by intravenous injection. The following applies: in vivo, maximum dose by intravenous injection without deaths after 24 hrs. From the text:
We also evaluated the various peptides for efficacy in suppressing nitric oxide production induced by LPS stimulation of BV2 microglia cells as a measure of anti-inflammatory activity as well as the maximum dose tolerated in mice (Table I and FIG. 6A). For the LPS assay, EC50 is the concentration of compound that caused a 50% suppression of nitric oxide release from BV2 cells following LPS stimulation. For mouse toxicity, MTD is the maximum dose of the compound that can be given by intravenous injection without causing deaths after 24 hrs. […] Coupling the ApoE domain to a protein transduction domain further enhanced the potency of the dimers.

In data set [2] the test system is MDA-MB-231 breast cancer cells. In kind it is cell-based. The following applies: 48 hours, MTT. The method, then: (§1) FIG. 14A: Dose response curve of COG445 on proliferation of U87 (open circles) and MDA-MB-231 (filled circles) cells as measured by MTT reduction. FIG. 14B: Dose response curve of COG445 on proliferation of MDA-MB-231 cells as measured by cell count.
Next, we examined the potency of an ApoE peptide dimer versus the monomeric form on proliferation of the MDA-MB-231 breast cancer cell line. MDA-MB-231 cells were treated with various concentrations of either COG435 (monomer; SEQ ID NO: 90) or COG493 (a BMOE-linked dimer of COG 435) peptides for 48 hours. Following peptide treatment, cells were quantified using a MTT assay.
(§2) Because COG445 inhibited Akt activation and downstream signaling, we examined the effects of COG445 on cellular proliferation. Adherent MB231 and U87 cells were grown for ˜24 hours in the presence of COG445 and cellular proliferation was measured by MTT reduction. […] Furthermore, COG445 inhibited MB231 cellular proliferation as determined by cell count (FIG. 14B). Approximately 6×10^4 cells were plated in growth media (RPMI+10% FBS) for 24-hours with increasing concentrations of COG445. […] However at concentrations ≧1 μM COG445, there appears to be a loss of cells. This is partially explained by decreased proliferation, although it is possible that the rate of cellular degradation was increased in the presence of COG445.

The next data set deals with U87MG glioblastoma cells. In kind it is cell-based. The following applies: MTT. The method, then:
as §1
To determine whether ApoE peptide dimers were cytotoxic to other types of cancer, we evaluated the effect of three different ApoE BMOE-linked peptide dimers (COG449, COG492, COG493; see Table I) on the growth characteristics of U87MG glioblastoma cells. Various concentrations of COG449, COG492, COG493 or Sorafenib were used to treat U87MG glioblastoma cells and viable cells were quanititated using MTT. Sorafenib, which has previously been reported to be cytotoxic to glioblastoma cells (Yang et al. (2010) Mol Cancer Ther., Vol. 9(4):953-962), was used as a positive control.
as §2

With “LRVRLAS(Aib)LRKLR(K-Ac)RLL (SEQ ID NO: 35) (LRVRLAS[Aib]LRKLRK(Ac)RLL) [COG345]”, the “anti-inflammatory activity relative to COG133 in NO release assays” value with BV2 microglia cells is reported as “improved anti-inflammatory activity”.
In turn, `CC(=O)N[C@@H](Cc1c[nH]c2ccccc12)C(=O)N[C@@H](CCCCN)C(=O)N[C@@H](CCCCN)C(=O)N[C@@H](CSC1CC(=O)N(CCN2C(=O)CC(SC[C@H](NC(=O)[C@H](CCCCN)NC(=O)[C@H](CCCCN)NC(=O)[C@H](Cc3c[nH]c4ccccc34)NC(C)=O)C(=O)N[C@@H](CC(C)C)C(=O)N[C@@H](CCCNC(=N)N)C(=O)N[C@H](C(=O)N[C@@H](CCCNC(=N)N)C(=O)N[C@@H](CC(C)C)C(=O)N[C@@H](C)C(=O)N[C@@H](CO)C(=O)N[C@@H](Cc3c[nH]cn3)C(=O)N[C@@H](CC(C)C)C(=O)N[C@@H](CCCNC(=N)N)C(=O)N[C@@H](CCCCN)C(=O)N[C@@H](CC(C)C)C(=O)N[C@@H](CCCNC(=N)N)C(=O)N[C@@H](CCCCN)C(=O)N[C@@H](CCCNC(=N)N)C(=O)N[C@@H](CC(C)C)C(=O)N[C@@H](CC(C)C)C(N)=O)C(C)C)C2=O)C1=O)C(=O)N[C@@H](CC(C)C)C(=O)N[C@@H](CCCNC(=N)N)C(=O)N[C@H](C(=O)N[C@@H](CCCNC(=N)N)C(=O)N[C@@H](CC(C)C)C(=O)N[C@@H](C)C(=O)N[C@@H](CO)C(=O)N[C@@H](Cc1c[nH]cn1)C(=O)N[C@@H](CC(C)C)C(=O)N[C@@H](CCCNC(=N)N)C(=O)N[C@@H](CCCCN)C(=O)N[C@@H](CC(C)C)C(=O)N[C@@H](CCCNC(=N)N)C(=O)N[C@@H](CCCCN)C(=O)N[C@@H](CCCNC(=N)N)C(=O)N[C@@H](CC(C)C)C(=O)N[C@@H](CC(C)C)C(N)=O)C(C)C` (stereo partly shown) [COG493, WKK-C-LRVRLASHLRKLRKRLL (SEQ ID NO: 90) <BMOE> WKK-C-LRVRLASHLRKLRKRLL (SEQ ID NO: 90)] returned an MTD at 24 h in data set [1] of 20 mg/kg. Moreover, the “cytotoxicity to MDA-MB-231 cells, dimer versus monomer COG435” value in data set [2] was “significantly more cytotoxic”. For the same compound, the “cytotoxicity to U87MG cells” value with U87MG glioblastoma cells was “cytotoxic”.

What is called MTD is the highest dose tested that stayed within the study's limit of toxicity. High values mean better tolerability, low ones poorer tolerability.
